Test results as given in publication PMC7914897, “Cytotoxic Potential of a-Azepano- and 3-Amino-3,4-SeCo-Triterpenoids” (International Journal of Molecular Sciences, 2021).
Like-named read-outs stand apart in the source and are kept apart here.

What was measured:
COLO 205 (Colon cancer) = assay: NCI-60 screen (SRB, 48 h); settings: COLO 205, 1 dose 10 µM
[1] = tested on: NIH 3T3 (non-malignant mouse fibroblasts); assay: SRB cytotoxicity assay, 72 h; assay type: cell-based; settings: Mus musculus, NIH3T3; NIH 3T3, 72 h, cut-off 30 µM; read-out: EC50
Description: (§1) The cytotoxicity of compounds 1–20 was evaluated by means of a colorimetric sulforhodamine B (SRB) assay. For all compounds, the EC50 values were determined for the human tumor cell lines A375 (malignant melanoma), HT29 (colorectal carcinoma), MCF-7 (breast carcinoma), A2780 (ovarian carcinoma), FaDu (hypopharyngeal carcinoma), and NIH 3T3 (non-malignant mouse fibroblasts).
(§2) In short, exponentially growing cells were seeded into 96-well plates on day 0 at the appropriate cell densities to prevent confluence of the cells during the period of experiment. After 24 h, the cells were treated with serial dilutions of the compounds (0–30 µM) for 72 h. The final concentration of DMSO never exceeded 0.5%, which was non-toxic to the cells. After a 72 h treatment, the supernatant medium from the 96-well plates was discarded, and the cells were fixed with 10% TCA. For a thorough fixation, the plates were allowed to rest at 4 °C. After fixation, the cells were washed in a strip washer. The washing was done four times with water using alternate dispensing and aspiration procedures. The plates were then dyed with 100 µL of 0.4% SRB for about 20 min. After dying, the plates were washed with 1% acetic acid to remove the excess of the dye and allowed to air-dry overnight. Tris base solution (200 µL, 10 mM) was added to each well and absorbance was measured at λ = 570 nm (using a 96 well plate reader, Tecan Spectra, Crailsheim, Germany). The percentages of surviving cells relative to untreated controls were determined.

SR (Leukemia) = assay: NCI-60 screen (SRB, 48 h); assay type: cell-based; settings: 1 dose 10 µM
MCF-7 (breast carcinoma) = assay: SRB cytotoxicity assay, 72 h; assay type: cell-based, human; settings: Homo sapiens, MCF7; MCF-7, 72 h, cut-off 30 µM; read-out: EC50
Description: as §1, §2

[2] = tested on: A2780 (ovarian carcinoma); assay: SRB cytotoxicity assay, 72 h; assay type: cell-based, human; settings: Homo sapiens; A2780, 72 h, cut-off 30 µM; read-out: EC50
Description: as §1, §2

[3] = tested on: FaDu (hypopharyngeal carcinoma); assay: SRB cytotoxicity assay, 72 h; assay type: cell-based, human; settings: Homo sapiens, cut-off 30 µM, read-out: EC50
Description: as §1, §2

[4] = tested on: A375 (malignant melanoma); assay: SRB cytotoxicity assay, 72 h; assay type: cell-based, human; settings: A375, 72 h, cut-off 30 µM, read-out: EC50
Description: as §1, §2

[5] = tested on: HT29 (colorectal carcinoma); assay: SRB cytotoxicity assay, 72 h; assay type: cell-based, human; settings: Homo sapiens, HT-29; HT29, 72 h, cut-off 30 µM; read-out: EC50
Description: as §1, §2

[6] = tested on: panel of approximately 60 cancer cell lines; assay: NCI-60 screen (SRB, 48 h), full panel; settings: for Positive Cytostatic Effect (cell lines with percent growth 0 to 50 / total) / Positive Cytotoxic Effect (cell lines with percent growth < 0 / total) / number of cancer cell lines the compound was active against: 1 dose 10 µM; for activity at 10 µM: Homo sapiens, 48 h
HT29 (Colon cancer) = assay: NCI-60 screen (SRB, 48 h); settings: HT29, 1 dose 10 µM

Row | Compound | Growth % of the Most Sensitive Cell Lines (COLO 205 (Colon cancer)) [%] | EC50 [1] [µM] | Growth % of the Most Sensitive Cell Lines (SR (Leukemia)) [%] | EC50 (MCF-7 (breast carcinoma)) [µM] | EC50 [2] [µM] | EC50 [3] [µM] | EC50 ([4]; Homo sapiens, A-375, 72 h) [µM] | EC50 [5] [µM] | Positive Cytostatic Effect (cell lines with percent growth 0 to 50 / total) [6] | Positive Cytotoxic Effect (cell lines with percent growth < 0 / total) [6] | number of cancer cell lines the compound was active against [6] | activity at 10 µM ([6]; read-out: Mean Growth, %) [%] | activity at 10 µM ([6]; read-out: Range of Growth, %) [%] | Growth % of the Most Sensitive Cell Lines (HT29 (Colon cancer)) [%] | EC50 [4] [µM]
1 | CC1(C)NCCC[C@]2(C)[C@H]3CC=C4[C@@H]5C[C@@](C)(CO)CC[C@]5(C)CC[C@@]4(C)[C@]3(C)CC[C@@H]12 [Compound 5, azepano-glycyrretol] | −4.98 | 7.43 ± 1.2 | −1.30 | 5.68 ± 0.5 | 6.36 ± 0.6 | 4.81 ± 0.9 | 5.69 ± 0.4 | 3.97 ± 0.4 | 13/58 | 2/58 | 8 cell lines | 56.2 | -4.98 to 98.9 | – | –
2 | CC1(C)CC[C@]2(C(=O)NC(CO)Cc3ccccc3)CC[C@]3(C)C(=CC[C@@H]4[C@@]5(C)CCCNC(C)(C)[C@@H]5CC[C@]43C)[C@@H]2C1 (stereo partly shown) [Compound 13] | – | 3.08 ± 0.3 | −5.95 | 2.82 ± 0.3 | 4.15 ± 0.2 | 3.79 ± 0.3 | 3.08 ± 0.1 | 2.07 ± 0.1 | 10/60 | 1/60 | 6 cell lines | 74.9 | -5.95 to 107 | – | –
3 | CC(=O)[C@@H]1CC[C@]2(CO)CC[C@]3(C)[C@H](CC[C@@H]4[C@@]5(C)CCCNC(C)(C)[C@@H]5CC[C@]43C)[C@@H]12 [Compound 2, azepanomessagenin] | – | 8.03 ± 1.4 | – | 5.78 ± 0.7 | 7.71 ± 0.4 | 6.21 ± 1.2 | 7.92 | 6.32 ± 0.4 | 0/59 | – | did not show antiproliferative activity | 99.2 | 68.1 to 136 | 68.07 | 7.82 ± 0.3
4 | C=C(C)[C@@H]1CC[C@]2(C)[C@H](CC=C3[C@@H]4CC(C)(C)CC[C@]4(CO)CC[C@]32C)[C@@]1(C)CCCN [Compound 18] | – | 4.02 ± 0.7 | – | 2.65 ± 0.2 | 4 ± 0.2 | 3.34 ± 0.3 | 3.38 ± 0.2 | 1.72 ± 0.2 | – | – | – | – | – | – | –
